Results: patent publication US8163724B2, “Glucocorticosteroids, processes for their preparation, pharmaceutical compositions containing them and their use in therapy” (AstraZeneca AB, priority 2007, dated 2012)

molecular target: T1, recombinant human GR (Homo sapiens, UniProt P04150); assay: Human Glucocorticoid Receptor (GR) Assay (fluorescence polarization, Panvera/Invitrogen kit); format: binding; conditions: fluorescence polarization; GS Red tracer; 2 hours at room temperature; 100% control 10 μM Dexamethasone; read-out: Inhibition of GR binding, IC50
T1 construct: purchased Panvera/Invitrogen P2812 (kit P2893)
T1 sequence (P04150 1-777): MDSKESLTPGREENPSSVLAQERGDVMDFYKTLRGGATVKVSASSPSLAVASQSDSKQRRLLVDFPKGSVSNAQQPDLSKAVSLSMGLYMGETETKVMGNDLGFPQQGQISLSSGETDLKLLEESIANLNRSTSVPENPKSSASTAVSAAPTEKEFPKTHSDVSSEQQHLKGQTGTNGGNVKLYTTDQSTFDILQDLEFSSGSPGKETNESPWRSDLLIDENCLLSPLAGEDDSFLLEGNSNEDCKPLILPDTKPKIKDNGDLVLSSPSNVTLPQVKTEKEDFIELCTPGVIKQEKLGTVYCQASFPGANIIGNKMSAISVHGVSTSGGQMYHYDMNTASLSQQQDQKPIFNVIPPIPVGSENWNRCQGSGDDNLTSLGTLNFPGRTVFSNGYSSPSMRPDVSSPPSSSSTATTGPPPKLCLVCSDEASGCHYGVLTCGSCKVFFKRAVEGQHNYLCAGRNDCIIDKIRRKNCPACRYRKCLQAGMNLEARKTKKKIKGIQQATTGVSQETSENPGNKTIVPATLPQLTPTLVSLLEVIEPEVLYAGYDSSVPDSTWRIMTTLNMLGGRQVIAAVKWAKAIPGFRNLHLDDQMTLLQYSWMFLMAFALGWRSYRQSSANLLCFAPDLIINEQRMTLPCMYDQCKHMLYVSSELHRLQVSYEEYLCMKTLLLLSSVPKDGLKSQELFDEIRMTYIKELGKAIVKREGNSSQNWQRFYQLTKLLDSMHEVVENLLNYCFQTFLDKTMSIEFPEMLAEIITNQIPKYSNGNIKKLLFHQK
In short: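 Fluorescence polarization competition with recombinant GR and GS Red fluorescent ligand plus stabilizing peptide and DTT in potassium phosphate/sodium molybdate/EDTA buffer with DMSO. Incubated 2 hours at room temperature in the dark; 0% control DMSO, 100% control 10 μM dexamethasone.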

Point of comparison: `C[C@]12Cc3cnn(-c4ccc(F)cc4)c3C=C1CC[C@H]1[C@@H]3CC[C@](OC(=O)c4cocn4)(C(=O)SCF)[C@@]3(C)C[C@H](O)[C@@]12F` [Example 202, (1R,3aS,3bS,10aS,10bR,11S,12aS)-1-{[(Fluoromethyl)sulfanyl]carbonyl}-10b-fluoro-7-(4-fluorophenyl)-11-hydroxy-10a,12a-dimethyl-1,2,3,3a,3b,4,5,7,10,10a,10b,11,12,12a-tetradecahydrocyclopenta[5,6]naphtho[1,2-f]indazol-1-yl 1,3-oxazole-4-carboxylate], IC50 5.8 nM. Against it:
- CCC(=O)O[C@]1(C(=O)SCC#N)CC[C@H]2[C@@H]3CCC4=Cc5c(cnn5-c5ccc(F)cc5)C[C@]4(C)[C@@]3(F)[C@@H](O)C[C@@]21C [Example 199, (1R,3aS,3bS,10aS,10bR,11S,12aS)-1-{[(Cyanomethyl)sulfanyl]carbonyl}-10b-fluoro-7-(4-fluorophenyl)-11-hydroxy-10a,12a-dimethyl-1,2,3,3a,3b,4,5,7,10,10a,10b,11,12,12a-tetradecahydrocyclopenta[5,6]naphtho[1,2-f]indazol-1-yl propanoate] — within 1.5-fold, 4.6 nM
- CCC(=O)O[C@]1(C(=O)SCF)CC[C@H]2[C@@H]3CCC4=Cc5c(cnn5-c5ccc(F)cc5)C[C@]4(C)[C@@]3(F)[C@@H](O)C[C@@]21C [Example 200, (1R,3aS,3bS,10aS,10bR,11S,12aS)-1-{[(Fluoromethyl)sulfanyl]carbonyl}-10b-fluoro-7-(4-fluorophenyl)-11-hydroxy-10a,12a-dimethyl-1,2,3,3a,3b,4,5,7,10,10a,10b,11,12,12a-tetradecahydrocyclopenta[5,6]naphtho[1,2-f]indazol-1-yl propanoate] — 2.4-fold higher, 14 nM
- C[C@]12Cc3cnn(-c4ccc(F)cc4)c3C=C1CC[C@H]1[C@@H]3CC[C@](OC(=O)c4cocn4)(C(=O)SCC#N)[C@@]3(C)C[C@H](O)[C@@]12F [Example 201, (1R,3aS,3bS,10aS,10bR,11S,12aS)-1-{[(Cyanomethyl)sulfanyl]-carbonyl}-10b-fluoro-7-(4-fluorophenyl)-11-hydroxy-10a,12a-dimethyl-1,2,3,3a,3b,4,5,7,10,10a,10b,11,12,12a-tetradecahydrocyclopenta[5,6]naphtho[1,2-f]indazol-1-yl 1,3-oxazole-4-carboxylate] — within 1.5-fold, 5.3 nM
- CCC(=O)O[C@]1(C(=O)SCC#N)CC[C@H]2[C@@H]3CCC4=Cc5c(cnn5-c5ccc(F)nc5)C[C@]4(C)[C@@]3(F)[C@@H](O)C[C@@]21C [Example 203, (1R,3aS,3bS,10aS,10bR,11S,12aS)-1-{[(Cyanomethyl)sulfanyl]carbonyl}-10b-fluoro-7-(6-fluoropyridin-3-yl)-11-hydroxy-10a,12a-dimethyl-1,2,3,3a,3b,4,5,7,10,10a,10b,11,12,12a-tetradecahydrocyclopenta[5,6]naphtho[1,2-f]indazol-1-yl propanoate] — 2.5-fold lower, 2.3 nM
- CCC(=O)O[C@]1(C(=O)SCF)CC[C@H]2[C@@H]3CCC4=Cc5c(cnn5-c5ccc(F)nc5)C[C@]4(C)[C@@]3(F)[C@@H](O)C[C@@]21C [Example 204, (1R,3aS,3bS,10aS,10bR,11S,12aS)-1-{[(Fluoromethyl)sulfanyl]carbonyl}-10b-fluoro-7-(6-fluoropyridin-3-yl)-11-hydroxy-10a,12a-dimethyl-1,2,3,3a,3b,4,5,7,10,10a,10b,11,12,12a-tetradecahydrocyclopenta[5,6]naphtho[1,2-f]indazol-1-yl propanoate] — 1.8-fold lower, 3.3 nM
- COCC(=O)O[C@]1(C(=O)SCC#N)CC[C@H]2[C@@H]3CCC4=Cc5c(cnn5-c5ccc(F)nc5)C[C@]4(C)[C@@]3(F)[C@@H](O)C[C@@]21C [Example 205, (1R,3aS,3bS,10aS,10bR,11S,12aS)-1-{[(Cyanomethyl)sulfanyl]carbonyl}-10b-fluoro-7-(6-fluoropyridin-3-yl)-11-hydroxy-10a,12a-dimethyl-1,2,3,3a,3b,4,5,7,10,10a,10b,11,12,12a-tetradecahydrocyclopenta[5,6]naphtho[1,2-f]indazol-1-yl methoxyacetate] — 4.1-fold lower, 1.4 nM
- COCC(=O)O[C@]1(C(=O)SCF)CC[C@H]2[C@@H]3CCC4=Cc5c(cnn5-c5ccc(F)nc5)C[C@]4(C)[C@@]3(F)[C@@H](O)C[C@@]21C [Example 206, (1R,3aS,3bS,10aS,10bR,11S,12aS)-1-{[(Fluoromethyl)sulfanyl]carbonyl}-10b-fluoro-7-(6-fluoropyridin-3-yl)-11-hydroxyl-1,2,3,3a,3b,4,5,7,10,10a,10b,11,12,12a-tetradecahydrocyclopenta[5,6]naphtho[1,2-f]indazol-1-yl methoxyacetate] — 2.3-fold lower, 2.5 nM
- C[C@]12Cc3cnn(-c4ccc(F)nc4)c3C=C1CC[C@H]1[C@@H]3CC[C@](OC(=O)C4CC4)(C(=O)SCC#N)[C@@]3(C)C[C@H](O)[C@@]12F [Example 207, (1R,3aS,3bS,10aS,10bR,11S,12aS)-1-{[(Cyanomethyl)sulfanyl]carbonyl}-10b-fluoro-7-(6-fluoropyridin-3-yl)-11-hydroxy-10a,12a-dimethyl-1,2,3,3a,3b,4,5,7,10,10a,10b,11,12,12a-tetradecahydrocyclopenta[5,6]naphtho[1,2-f]indazol-1-yl cyclopropanecarboxylate] — 1.8-fold lower, 3.3 nM
- C[C@]12Cc3cnn(-c4ccc(F)nc4)c3C=C1CC[C@H]1[C@@H]3CC[C@](OC(=O)C4CC4)(C(=O)SCF)[C@@]3(C)C[C@H](O)[C@@]12F [Example 208, (1R,3aS,3bS,10aS,10bR,11S,12aS)-1-{[(Fluoromethyl)sulfanyl]carbonyl}-10b-fluoro-7-(6-fluoropyridin-3-yl)-11-hydroxy-10a,12a-dimethyl-1,2,3,3a,3b,4,5,7,10,10a,10b,11,12,12a-tetradecahydrocyclopenta[5,6]naphtho[1,2-f]indazol-1-yl cyclopropanecarboxylate] — 1.7-fold lower, 3.4 nM
- C[C@]12Cc3cnn(-c4ccc(F)nc4)c3C=C1CC[C@H]1[C@@H]3CC[C@](OC(=O)c4cocn4)(C(=O)SCC#N)[C@@]3(C)C[C@H](O)[C@@]12F [Example 209, (1R,3aS,3bS,10aS,1.0bR,11S,12aS)-1-{[(Cyanomethyl)sulfanyl]carbonyl}-10b-fluoro-7-(6-fluoropyridin-3-yl)-11-hydroxy-10a,12a-dimethyl-1,2,3,3a,3b,4,5,7,10,10a,10b,11,12,12a-tetradecahydrocyclopenta[5,6]naphtho[1,2-f]indazol-1-yl 1,3-oxazole-4-carboxylate] — 1.6-fold lower, 3.6 nM
- C[C@]12Cc3cnn(-c4ccc(F)nc4)c3C=C1CC[C@H]1[C@@H]3CC[C@](OC(=O)c4cocn4)(C(=O)SCF)[C@@]3(C)C[C@H](O)[C@@]12F [Example 210, (1R,3aS,3bS,10aS,10bR,11S,12aS)-1-{[(Fluoromethyl)sulfanyl]carbonyl}-10b-fluoro-7-(6-fluoropyridin-3-yl)-11-hydroxy-10a,12a-dimethyl-1,2,3,3a,3b,4,5,7,10,10a,10b,11,12,12a-tetradecahydrocyclopenta[5,6]naphtho[1,2-f]indazol-1-yl 1,3-oxazole-4-carboxylate] — 2.9-fold lower, 2 nM
- C[C@]12Cc3cnn(-c4ccc(F)nc4)c3C=C1CC[C@H]1[C@@H]3CC[C@](OC(=O)c4ccco4)(C(=O)SCC#N)[C@@]3(C)C[C@H](O)[C@@]12F [Example 211, (1R,3aS,3bS,10aS,10bR,11S,12aS)-1-{[(Cyanomethyl)sulfanyl]carbonyl}-10b-fluoro-7-(6-fluoropyridin-3-yl)-11-hydroxy-10a,12a-dimethyl-1,2,3,3a,3b,4,5,7,10,10a,10b,11,12,12a-tetradecahydrocyclopenta[5,6]naphtho[1,2-f]indazol-1-yl furan-2-carboxylate] — 2.6-fold lower, 2.2 nM
- C[C@]12Cc3cnn(-c4ccc(F)nc4)c3C=C1CC[C@H]1[C@@H]3CC[C@](OC(=O)c4ccco4)(C(=O)SCF)[C@@]3(C)C[C@H](O)[C@@]12F [Example 212, (1R,3aS,3bS,10aS,10bR,11S,12aS)-1-{[(Fluoromethyl)sulfanyl]carbonyl}-10b-fluoro-7-(6-fluoropyridin-3-yl)-11-hydroxy-10a,12a-dimethyl-1,2,3,3a,3b,4,5,7,10a,10b,11,12,12a-tetradecahydrocyclopenta[5,6]naphtho[1,2-f]indazol-1-yl furan-2-carboxylate] — 2.8-fold lower, 2.1 nM
- CCC(=O)O[C@]1(C(=O)SCC#N)CC[C@H]2[C@@H]3C[C@H](C)C4=Cc5c(cnn5-c5ccc(F)cc5)C[C@]4(C)[C@H]3[C@@H](O)C[C@@]21C [Example 213, (1R,3aS,3bS,5S,10aR,10bS,11S,12aS)-1-{[(Cyanomethyl)sulfanyl]carbonyl}-7-(4-fluorophenyl)-11-hydroxy-5,10a,12a-trimethyl-1,2,3,3a,3b,4,5,7,10,10a,10b,11,12,12a-tetradecahydrocyclopenta[5,6]naphtho[1,2-f]indazol-1-yl propanoate] — 1.9-fold higher, 11 nM
